Results reported in ChEMBL document CHEMBL1145168, “Farnesoid X receptor: from structure to potential clinical applications” (J Med Chem, 2005).

Key:
[1] = organism: Homo sapiens; experiment: Activation of human Farnesoid X receptor/Retinoic X receptor at 5 uM
[2] = target: T1, Bile acid receptor (Homo sapiens, UniProt Q96RI1); experiment: Activation of human farnesoid X receptor in FRET assay
T1 sequence (Q96RI1 whole entry): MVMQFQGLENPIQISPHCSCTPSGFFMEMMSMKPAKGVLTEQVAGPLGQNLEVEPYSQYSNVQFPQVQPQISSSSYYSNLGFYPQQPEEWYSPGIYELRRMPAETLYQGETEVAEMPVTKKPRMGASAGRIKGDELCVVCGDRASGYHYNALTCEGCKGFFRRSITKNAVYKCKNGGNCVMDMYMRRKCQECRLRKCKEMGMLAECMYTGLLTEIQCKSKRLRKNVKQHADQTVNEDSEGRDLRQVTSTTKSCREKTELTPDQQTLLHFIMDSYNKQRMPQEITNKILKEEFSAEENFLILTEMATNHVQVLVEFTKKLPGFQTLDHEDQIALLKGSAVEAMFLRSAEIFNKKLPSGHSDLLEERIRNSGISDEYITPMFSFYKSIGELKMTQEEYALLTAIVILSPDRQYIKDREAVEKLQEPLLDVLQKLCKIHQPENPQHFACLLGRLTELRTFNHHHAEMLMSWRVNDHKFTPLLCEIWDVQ

[3] = Inhibition of human Farnesoid X receptor/Retinoid X receptor heterodimer; Antagonistic activity; type: functional

Fold activation [1]	EC50 [2]	SMILES	further results
85	–	CCCC/C(=C\c1ccc(C(=O)O)cc1)c1ccc2c(c1)C(C)(C)CCC2(C)C	–
91	–	CC1(C)CCC(C)(C)c2cc(C(Cc3ccc(C(=O)O)cc3)[Si](C)(C)C)ccc21 (stereo unspecified)	–

Second part, the molecule before the results:

SMILES	Fold activation [1]	EC50 [2]	further results
O=C(O)/C=C/c1cccc(N(Cc2ccc(/C=C/c3ccccc3)cc2)C(=O)C2CCCCC2)c1	–	255 nM	–
O=C(O)/C=C/c1cccc(N(Cc2ccc(-c3ccc4c(c3)OCO4)cc2)C(=O)C2CCCCC2)c1	–	222 nM	–
CCCCCCOc1c(\C(C)=C/C=C/C(C)=C/C(=O)O)cc(C(C)C)cc1C(C)C	–	–	IC50 [3]: < 10 nM
CN(C)c1ccc(-c2ccc(CN(C(=O)C3CCCCC3)c3cccc(/C=C/C(=O)O)c3)cc2)cc1	–	255 nM	–
